According to patent US6838090B2, “Water-insoluble drug delivery system” (priority 1998, dated 2005):

Columns and labels:
[1] = system: HSP90; details: 40 mg/kg i.v. single dose; 48-hours and 72-hours after administration
[2] = system: p185; assay: p185 expression in xenografts by western blot analysis; format: in vivo, SCID mice bearing human breast cancer xenografts; details: 40 mg/kg i.v. single dose
[3] = system: HSP70; assay: HSP70 level in tumor tissue by western blot analysis; format: in vivo, SCID mice bearing human breast cancer xenografts; details: 40 mg/kg i.v. single dose

SMILES | concentration in tumor tissue (mouse, in vivo, iv, 40 mg/kg) [µg/g] | time remaining detectable in tumor tissue after administration (mouse, in vivo, iv, 40 mg/kg) | HSP90 concentration in tumor tissue of treated vs untreated mice [1] | increase of p185 expression in xenografts over untreated mice ([2]; 2-hours after administration) [fold] | p185 expression in xenografts below control levels ([2]; 7-hours, 24-hours and 48-hours after administration) [%] | HSP70 concentration in tumor tissue of treated vs untreated mice ([3]; 4-hours and 7-hours after administration) | HSP70 concentration in tumor tissue of treated vs untreated mice ([3]; 48-hours and 72-hours after administration) | concentration in normal tissues (single intravenous dose of 40 mg/kg, SCID mice, 7-hours post-administration, HPLC)
CO[C@H]1C=C/C=C(\C)C(=O)NC2=CC(=O)C(N)=C(C[C@@H](C)C[C@H](OC)[C@H](O)[C@@H](C)/C=C(\C)[C@@H]1OC(N)=O)C2=O (stereo in doubt) [Example 17-AG] | 0.5 to 1 | more than 48 hours |  |  |  |  |  | 
C=CCNC1=C2C[C@@H](C)C[C@H](OC)[C@H](O)[C@@H](C)/C=C(\C)[C@H](OC(N)=O)[C@@H](OC)/C=C\C=C(/C)C(=O)NC(=CC1=O)C2=O [Example 17-AAG, 17-allylaminogeldanamycin] |  |  | elevated | 2 | 30 | lower | elevated | below detection levels
